In patent US20140121256A1, “METHOD OF TREATING MUSCULAR WEAKNESS COMPRISING ADMINISTERING A COMPOSITION COMPRISING AN EFFECTIVE AMOUNT OF HISTAMINE AND/OR SEROTONIN” (BEECH TREE LABS, INC., priority 2012, published 2014):

Experiments:
[1] = test system: normal human BioArtificial Muscles (mBAMs engineered from human skeletal myoblasts); assay: Tetanic (active) force of mBAMs, MyoForce Analysis System; format: cell-based; settings: 80 nM; after 3-4 days of drug treatment; p<0.001
Protocol: According to this example, a composition comprising histamine and serotonin was administered at 6 different concentrations on normal human BioArtificial Muscles (mBAMs engineered from human skeletal rmyoblasts) for effects on strength (active force generation) and injury using Myomics' MyoForce Analysis System (MFAS™).
A solution comprising 200 times the dosage of the histamine and serotonin present in a typical therapeutic drop (i.e., 1 mg histamine and 16 mg serotonin in PBS) stored at 4° C. was administered to a cell culture comprising human skeletal muscle cells previously isolated from a normal (disease-free) person were used for this study. Cells were expanded in culture in a Growth Medium optimized for human skeletal muscle (SKGM/15) for 5 days before engineering into bioartificial muscles (mBAMs). On the day of engineering, mBAMs, cells were trypsinized and counted following standard laboratory protocols.
A sterile 96 well MyoForce plate was used for tissue engineering the mBAMs. Myomics' Robotic Tissue Engineering Platform was used to engineer 72 mBAMs in approximately 10 minutes by mixing cells with an extracellular matrix solution and casting in the plate wells. The plate containing the mBAMs was maintained for 2 days at 37° C. in SKGM/15, then incubated in an optimized differentiation medium for the remainder of the experiment. […]

[2] = test system: C57BL/10SCSN-Dmd^mdx/J mice; assay: Grip strength tests (triangle and mesh) in mdx mouse model of DMD; format: in vivo; settings: 1×, 4×, 8×, twice daily
Text: Female mouse strain C57BL/10SCSN-Dmd^mdx/J (Jackson laboratories) is a strain of mice that is most similar in affliction to humans with DMD. The mdx mutation of Dmd is recessive and heterozygous females are visually indistinguishable from wild-type mice. […] One of the drawbacks of this mouse model is that by six weeks (10 weeks of age) the afflicted mice mimic the wild type control mice. This is attributed to the compensatory function of the dystrophin-related protein utrophin, which is highly up regulated in regenerating muscle fibers in adult Dmd^mdx mutants. The histamine and serotonin formulation was evaluated using this mouse model to determine its effects on DMD.
The first experiment conducted focused on whether any difference could be detected in mice receiving the histamine and serotonin formulation vs. control.
Injections started the following day.
Measurements to determine effectiveness of histamine and serotonin formulation were conducted using two different methods: 1. a wire hang test was utilized to see how long the mice were able to hang onto a wire before releasing and falling, and 2. a grip strength meter device (Columbus Instruments) was used to measure the peak force exerted by the animal when pulled. […]
For both of the grip strength tests, ten measurements were taken per mouse and the average was recorded.

With `CC(=O)OCC(=O)[C@@]12N=C(C)O[C@@H]1C[C@H]1[C@@H]3CCC4=CC(=O)C=C[C@]4(C)[C@H]3[C@@H](O)C[C@@]12C` [deflazacort] the “increase in tetanic force compared to untreated controls” value [1] was 32%.

With `NCCc1c[nH]cn1` [histamine] the “triangle and mesh grip strength vs PBS control” value ([2]; third experiment, histamine alone 0.4×) was “improves performance in both the Triangle and Mesh tests”.

For `NCCc1c[nH]c2ccc(O)cc12` [serotonin, 5-hydroxytryptamine], the “grip strength tests vs PBS controls” value ([2]; fourth experiment, serotonin alone 0.4×) was “no statistically significant differences”.
